Test results: ChEMBL document CHEMBL5518215, “Unlocking Antibacterial Potential: Key-Site-Based Regulation of Antibacterial Spectrum of Peptides” (J Med Chem, 2024)

Tests used:
[1] = system: Enterococcus faecalis; assay: Antimicrobial activity against Enterococcus faecalis 29212 assessed as absence bacterial growth measured after 18 to 24 hrs incubation by NCCLS method; format: functional; details: time 18-24 hrs
[2] = Antimicrobial activity against Salmonella pullorum C7913 assessed as bacterial killing measured after 16 hrs incubation; format: functional, Salmonella enterica subsp. enterica serovar Pullorum; details: Salmonella enterica
[3] = system: Salmonella typhimurium; assay: Antimicrobial activity against Salmonella typhimurium C7731 assessed as absence bacterial growth measured after 18 to 24 hrs incubation by NCCLS method; format: functional, Salmonella enterica subsp. enterica serovar Typhimurium; details: Salmonella enterica, time 18-24 hrs
[4] = system: Escherichia coli; assay: Antimicrobial activity against Escherichia coli 25922 assessed as absence bacterial growth measured after 18 to 24 hrs incubation in presence of NH4Cl by NCCLS method; format: functional; details: time 18-24 hrs
[5] = system: Listeria monocytogenes; assay: Antimicrobial activity against Listeria monocytogenes 1.10753 assessed as absence bacterial growth measured after 18 to 24 hrs incubation by NCCLS method; format: functional; details: time 18-24 hrs
[6] = Cytotoxicity against mouse RAW264.7 cells assessed as cell survival rate measured after 8 hrs by MTT assay; format: toxicity, cell-based
[7] = system: Escherichia coli; assay: Antimicrobial activity against Escherichia coli 25922 assessed as absence bacterial growth measured after 18 to 24 hrs incubation by NCCLS method; format: functional; details: time 18-24 hrs
[8] = system: Escherichia coli; assay: Antimicrobial activity against Escherichia coli 25922 assessed as absence bacterial growth measured after 18 to 24 hrs incubation in presence of NaCl by NCCLS method; format: functional; details: time 18-24 hrs
[9] = system: Staphylococcus epidermidis; assay: Antimicrobial activity against Staphylococcus epidermidis 12228 assessed as absence bacterial growth measured after 18 to 24 hrs incubation by NCCLS method; format: functional; details: time 18-24 hrs
[10] = Cytotoxicity against porcine IPEC-J2 cells assessed as cell survival rate at 64 uM measured after 8 hrs by MTT assay relative to control; format: toxicity, cell-based, Sus scrofa; details: pig, read-out: Activity
[11] = system: Escherichia coli; assay: Antimicrobial activity against Escherichia coli K88 assessed as absence bacterial growth measured after 18 to 24 hrs incubation by NCCLS method; format: functional; details: time 18-24 hrs
[12] = Antimicrobial activity against Salmonella pullorum C7913 assessed as absence bacterial growth measured after 18 to 24 hrs incubation by NCCLS method; format: functional, Salmonella enterica subsp. enterica serovar Pullorum; details: Salmonella enterica, time 18-24 hrs
[13] = system: Staphylococcus aureus; assay: Antimicrobial activity against Staphylococcus aureus 29213 assessed as absence bacterial growth measured after 18 to 24 hrs incubation by NCCLS method; format: functional; details: time 18-24 hrs
[14] = Hemolytic activity in human RBC at effective concentration at 128 uM measured after 1 hr by microplate reader relative to control; format: toxicity, cell-based, Erythrocyte; details: human red blood cells (erythrocytes), read-out: Activity
[15] = system: Escherichia coli; assay: Antimicrobial activity against Escherichia coli 25922 assessed as absence bacterial growth measured after 18 to 24 hrs incubation in presence of FeCl3 by NCCLS method; format: functional; details: time 18-24 hrs
[16] = system: Erythrocyte; assay: Hemolytic activity in human RBC at effective concentration measured after 1 hr by microplate reader analysis; format: toxicity, cell-based
[17] = system: Salmonella typhimurium; assay: Antimicrobial activity against Salmonella typhimurium 14028 assessed as absence bacterial growth measured after 18 to 24 hrs incubation by NCCLS method; format: functional, Salmonella enterica subsp. enterica serovar Typhimurium; details: Salmonella enterica, time 18-24 hrs
[18] = system: Staphylococcus aureus; assay: Antimicrobial activity against Methicillin-resistant Staphylococcus aureus 43300 assessed as absence bacterial growth measured after 18 to 24 hrs incubation by NCCLS method; format: functional; details: time 18-24 hrs
[19] = system: Escherichia coli; assay: Antimicrobial activity against Escherichia coli 25922 assessed as absence bacterial growth measured after 18 to 24 hrs incubation in presence of ZnCl2 by NCCLS method; format: functional; details: time 18-24 hrs
[20] = system: Staphylococcus aureus; assay: Antimicrobial activity against Methicillin-resistant Staphylococcus aureus 43300 assessed as bacterial killing measured after 16 hrs incubation; format: functional
[21] = system: Staphylococcus aureus; assay: Antimicrobial activity against Staphylococcus aureus 29213 assessed as absence bacterial growth measured after 18 to 24 hrs incubation by NCCLS m; format: functional; details: time 18-24 hrs
[22] = system: Escherichia coli; assay: Antimicrobial activity against Escherichia coli 25922 assessed as absence bacterial growth measured after 18 to 24 hrs incubation in presence of KCl by NCCLS method; format: functional; details: time 18-24 hrs
[23] = system: Escherichia coli; assay: Antimicrobial activity against Escherichia coli 25922 assessed as absence bacterial growth measured after 18 to 24 hrs incubation in presence of 25% serum by NCCLS method; format: functional; details: time 18-24 hrs
[24] = system: Escherichia coli; assay: Antimicrobial activity against Escherichia coli 25922 assessed as bacterial killing measured after 16 hrs incubation; format: functional
[25] = Cytotoxicity against human HEK-293T cells assessed as cell survival rate measured after 8 hrs by MTT assay; format: toxicity, cell-based
[26] = system: Pseudomonas aeruginosa; assay: Antimicrobial activity against Pseudomonas aeruginosa 27853 assessed as bacterial killing measured after 16 hrs incubation; format: functional
[27] = system: Bacillus cereus; assay: Antimicrobial activity against Bacillus cereus 1.932 assessed as absence bacterial growth measured after 18 to 24 hrs incubation by NCCLS method; format: functional; details: time 18-24 hrs
[28] = system: Escherichia coli; assay: Antimicrobial activity against Escherichia coli 25922 assessed as absence bacterial growth measured after 18 to 24 hrs incubation in presence of MgCl2 by NCCLS method; format: functional; details: time 18-24 hrs
[29] = system: Acinetobacter baumannii; assay: Antimicrobial activity against Acinetobacter baumannii 1.6769 assessed as bacterial killing measured after 16 hrs incubation; format: functional
[30] = system: Bacillus cereus; assay: Antimicrobial activity against Bacillus cereus 1.932 assessed as bacterial killing measured after 16 hrs incubation; format: functional
[31] = system: Staphylococcus epidermidis; assay: Antimicrobial activity against Staphylococcus epidermidis 12228 assessed as bacterial killing measured after 16 hrs incubation; format: functional
[32] = system: Salmonella typhimurium; assay: Antimicrobial activity against Salmonella typhimurium C7731 assessed as bacterial killing measured after 16 hrs incubation; format: functional, Salmonella enterica subsp. enterica serovar Typhimurium; details: Salmonella enterica
[33] = Cytotoxicity against porcine IPEC-J2 cells assessed as cell survival rate measured after 8 hrs by MTT assay; format: toxicity, cell-based, Sus scrofa; details: pig
[34] = system: Escherichia coli; assay: Antimicrobial activity against Escherichia coli 25922 assessed as absence bacterial growth measured after 18 to 24 hrs incubation in presence of 12.5% serum by NCCLS method; format: functional; details: time 18-24 hrs
[35] = system: Acinetobacter baumannii; assay: Antimicrobial activity against Acinetobacter baumannii 1.6769 assessed as absence bacterial growth measured after 18 to 24 hrs incubation by NCCLS method; format: functional; details: time 18-24 hrs
[36] = system: Escherichia coli; assay: Antimicrobial activity against Escherichia coli K88 assessed as bacterial killing measured after 16 hrs incubation; format: functional
[37] = system: Enterococcus faecalis; assay: Antimicrobial activity against Enterococcus faecalis 29212 assessed as bacterial killing measured after 16 hrs incubation; format: functional
[38] = system: Salmonella typhimurium; assay: Antimicrobial activity against Salmonella typhimurium 14028 assessed as bacterial killing measured after 16 hrs incubation; format: functional, Salmonella enterica subsp. enterica serovar Typhimurium; details: Salmonella enterica
[39] = system: Pseudomonas aeruginosa; assay: Antimicrobial activity against Pseudomonas aeruginosa 27853 assessed as absence bacterial growth measured after 18 to 24 hrs incubation by NCCLS method; format: functional; details: time 18-24 hrs
[40] = system: Escherichia coli; assay: Antimicrobial activity against Escherichia coli 25922 assessed as absence bacterial growth measured after 18 to 24 hrs incubation in presence of 50% serum by NCCLS method; format: functional; details: time 18-24 hrs
[41] = system: Staphylococcus aureus; assay: Antimicrobial activity against Staphylococcus aureus 29213 assessed as bacterial killing measured after 16 hrs incubation; format: functional
[42] = system: Staphylococcus aureus; assay: Antimicrobial activity against Staphylococcus aureus 25923 assessed as bacterial killing measured after 16 hrs incubation; format: functional
[43] = system: Listeria monocytogenes; assay: Antimicrobial activity against Listeria monocytogenes 1.10753 assessed as bacterial killing measured after 16 hrs incubation; format: functional
[44] = Cytotoxicity against human HEK-293T cells assessed as cell survival rate at 64 uM measured after 8 hrs by MTT assay relative to control; format: toxicity, cell-based; details: read-out: Activity

H-GKLWLKGGKLWLKGGKLWLKG-NH2
MIC [1]: > 32 µM | MBC [2]: 2 µM | MIC [3]: 4 µM | MIC [4]: 4 µM | MIC [5]: > 32 µM | IC50 at 8 h [6]: > 64 µM | MIC [7]: 4 µM | MIC [8]: > 32 µM | MIC [9]: > 32 µM | viability at 8 h, 64 µM [10]: > 80% | MIC [11]: 1 µM | MIC [12]: 1 µM | MIC [13]: > 32 µM | hemolysis at 1 h, 128 µM [14]: < 10% | MIC [15]: 4 µM | HC10 [16]: > 128 µM | MIC [17]: 2 µM | MIC [18]: > 32 µM | MIC [19]: 4 µM | MBC [20]: > 32 µM | MIC [21]: > 32 µM | MIC [22]: 4 µM | MIC [23]: > 32 µM | MBC [24]: 8 µM | IC50 at 8 h [25]: > 64 µM | MBC [26]: 16 µM | MIC [27]: > 32 µM | MIC [28]: 16 µM | MBC [29]: 8 µM | MBC [30]: > 32 µM | MBC [31]: > 32 µM | MBC [32]: 8 µM | IC50 at 8 h [33]: > 64 µM | MIC [34]: > 32 µM | MIC [35]: 8 µM | MBC [36]: 2 µM | MBC [37]: > 32 µM | MBC [38]: 4 µM | MIC [39]: 8 µM | MIC [40]: > 32 µM | MBC [41]: > 32 µM | MBC [42]: > 32 µM | MBC [43]: > 32 µM | viability at 8 h, 64 µM [44]: > 80%

H-GKLWLKGGKLWLKGGKLWLKA-NH2
MIC [1]: 16 µM | MBC [2]: 4 µM | MIC [3]: 4 µM | MIC [4]: 2 µM | MIC [5]: > 32 µM | IC50 at 8 h [6]: > 64 µM | MIC [7]: 2 µM | MIC [8]: 32 µM | MIC [9]: 8 µM | viability at 8 h, 64 µM [10]: > 80% | MIC [11]: 0.5 µM | MIC [12]: 2 µM | MIC [13]: 16 µM | hemolysis at 1 h, 128 µM [14]: < 10% | MIC [15]: 2 µM | HC10 [16]: > 128 µM | MIC [17]: 2 µM | MIC [18]: 8 µM | MIC [19]: 2 µM | MBC [20]: 8 µM | MIC [21]: > 32 µM | MIC [22]: 2 µM | MIC [23]: > 32 µM | MBC [24]: 4 µM | IC50 at 8 h [25]: > 64 µM | MBC [26]: 4 µM | MIC [27]: > 32 µM | MIC [28]: 8 µM | MBC [29]: 4 µM | MBC [30]: > 32 µM | MBC [31]: 8 µM | MBC [32]: 8 µM | IC50 at 8 h [33]: > 64 µM | MIC [34]: 32 µM | MIC [35]: 4 µM | MBC [36]: 0.5 µM | MBC [37]: 16 µM | MBC [38]: 8 µM | MIC [39]: 4 µM | MIC [40]: > 32 µM | MBC [41]: 32 µM | MBC [42]: > 32 µM | MBC [43]: > 32 µM | viability at 8 h, 64 µM [44]: > 80%

H-FKLWLKGGKLWLKGGKLWLKG-NH2
MIC [1]: > 32 µM | MBC [2]: 2 µM | MIC [3]: > 32 µM | MIC [4]: 8 µM | MIC [5]: > 32 µM | IC50 at 8 h [6]: > 64 µM | MIC [7]: 4 µM | MIC [8]: > 32 µM | MIC [9]: > 32 µM | MIC [11]: 1 µM | MIC [12]: 2 µM | MIC [13]: > 32 µM | hemolysis at 1 h, 128 µM [14]: < 10% | MIC [15]: 2 µM | HC10 [16]: 128 µM | MIC [17]: 4 µM | MIC [18]: 16 µM | MIC [19]: 8 µM | MBC [20]: > 32 µM | MIC [21]: > 32 µM | MIC [22]: 8 µM | MIC [23]: > 32 µM | MBC [24]: 8 µM | IC50 at 8 h [25]: > 64 µM | MBC [26]: 32 µM | MIC [27]: > 32 µM | MIC [28]: > 32 µM | MBC [29]: 8 µM | MBC [30]: > 32 µM | MBC [31]: > 32 µM | MBC [32]: > 32 µM | IC50 at 8 h [33]: 20 µM | MIC [34]: 16 µM | MIC [35]: 8 µM | MBC [36]: 1 µM | MBC [37]: > 32 µM | MBC [38]: 16 µM | MIC [39]: 32 µM | MIC [40]: > 32 µM | MBC [41]: 32 µM | MBC [42]: > 32 µM | MBC [43]: > 32 µM
